Legend:
[1] = molecular target: T1, MLL1 SET domain (MLL^3745) (Homo sapiens, UniProt Q03164); assay: [3H]methyl transfer to H3 peptide, streptavidin pull-down, liquid scintillation counting; format: biochemical; details: histone H3 peptide (1-20)-GGK-biotin 500 μM fixed; 7 μM MLL1; 0-100 μM labelled compound; assay buffer pH 8.5, 15 °C; construct of MLL1 not stated for this assay; read-out: apparent Km
T1 construct: gene KMT2A; C-terminal Win motif + SET domain, residues 3745-3969, 26 kDa, expressed in E. coli as GST fusion
T1 sequence (Q03164 3745-3969): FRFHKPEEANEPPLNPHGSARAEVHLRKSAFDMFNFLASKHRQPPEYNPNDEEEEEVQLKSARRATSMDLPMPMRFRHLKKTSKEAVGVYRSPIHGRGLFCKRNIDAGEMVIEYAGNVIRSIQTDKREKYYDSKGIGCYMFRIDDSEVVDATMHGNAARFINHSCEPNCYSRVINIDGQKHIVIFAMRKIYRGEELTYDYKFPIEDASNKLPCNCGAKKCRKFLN

MBP-Trithorax SET domain = molecular target: T2, MBP-Trithorax SET domain (Drosophila melanogaster, UniProt P20659); assay: [3H]methyl transfer (automethylation and H3 methylation), SDS-PAGE fluorography; format: biochemical; details: labelled compound; with or without histone H3 peptide (1-20); pH 8.5, 15 °C
T2 construct: gene trx; SET domain as MBP fusion from E. coli
T2 sequence (P20659 3588-3726 limits assumed): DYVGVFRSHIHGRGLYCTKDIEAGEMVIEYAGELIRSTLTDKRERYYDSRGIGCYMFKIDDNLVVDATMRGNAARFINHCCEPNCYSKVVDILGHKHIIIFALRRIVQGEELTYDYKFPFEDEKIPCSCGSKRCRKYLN

[2] = molecular target: T3, MLL1 core complex (MWRAD) (Homo sapiens, UniProt Q03164); details: labelled compound; no histone H3; pH 8.5, 15 °C; intra-complex methylation of Ash2L by MLL1 SET domain
T3 construct: gene KMT2A
T3 sequence (Q9C005 whole entry, the tested form may be a part): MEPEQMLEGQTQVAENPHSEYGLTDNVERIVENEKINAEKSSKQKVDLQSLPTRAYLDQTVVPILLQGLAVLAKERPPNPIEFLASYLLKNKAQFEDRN
T3 sequence (Q9UBL3 whole entry, further chain, the tested form may be a part): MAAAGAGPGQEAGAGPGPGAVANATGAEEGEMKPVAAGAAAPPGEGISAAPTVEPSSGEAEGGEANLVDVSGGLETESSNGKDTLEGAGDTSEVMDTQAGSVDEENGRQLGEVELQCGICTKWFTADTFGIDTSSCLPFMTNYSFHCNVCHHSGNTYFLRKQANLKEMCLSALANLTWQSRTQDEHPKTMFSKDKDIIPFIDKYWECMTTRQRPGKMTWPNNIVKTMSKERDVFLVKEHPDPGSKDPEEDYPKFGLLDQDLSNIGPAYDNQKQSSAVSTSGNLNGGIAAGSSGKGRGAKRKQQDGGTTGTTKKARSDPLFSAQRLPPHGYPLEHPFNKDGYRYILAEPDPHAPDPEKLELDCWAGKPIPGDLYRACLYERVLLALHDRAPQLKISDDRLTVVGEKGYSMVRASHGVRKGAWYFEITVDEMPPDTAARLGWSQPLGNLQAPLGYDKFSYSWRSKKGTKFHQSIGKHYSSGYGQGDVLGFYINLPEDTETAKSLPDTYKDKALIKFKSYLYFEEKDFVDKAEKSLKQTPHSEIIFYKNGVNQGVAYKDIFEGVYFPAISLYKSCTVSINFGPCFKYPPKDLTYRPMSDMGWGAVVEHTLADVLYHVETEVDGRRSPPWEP
T3 sequence (Q03164 3745-3969): as the sequence (Q03164 3745-3969) above
T3 sequence (Q15291 whole entry, further chain, the tested form may be a part): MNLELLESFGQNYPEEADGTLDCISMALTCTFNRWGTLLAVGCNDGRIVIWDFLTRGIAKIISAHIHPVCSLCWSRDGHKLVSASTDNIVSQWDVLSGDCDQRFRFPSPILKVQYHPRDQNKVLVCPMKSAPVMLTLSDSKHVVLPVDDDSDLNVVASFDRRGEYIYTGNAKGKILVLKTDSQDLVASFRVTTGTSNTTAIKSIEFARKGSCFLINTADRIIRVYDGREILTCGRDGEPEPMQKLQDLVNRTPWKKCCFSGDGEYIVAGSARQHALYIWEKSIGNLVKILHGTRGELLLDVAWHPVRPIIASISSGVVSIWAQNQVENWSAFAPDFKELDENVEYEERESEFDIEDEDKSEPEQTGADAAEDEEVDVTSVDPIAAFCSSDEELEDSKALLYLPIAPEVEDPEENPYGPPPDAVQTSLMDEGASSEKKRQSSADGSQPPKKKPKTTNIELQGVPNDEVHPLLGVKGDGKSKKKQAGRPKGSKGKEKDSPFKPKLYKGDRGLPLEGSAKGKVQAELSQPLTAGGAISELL

WRAD = molecular target: T4, WRAD (Homo sapiens, UniProt Q15291+Q9UBL3); details: labelled compound, no MLL1
T4 construct: gene ASH2L
T4 sequence (Q9C005 whole entry): as the sequence (Q9C005 whole entry, the tested form may be a part) above
T4 sequence (Q15291 whole entry): as the sequence (Q15291 whole entry, further chain, the tested form may be a part) above
T4 sequence (Q9UBL3 whole entry): as the sequence (Q9UBL3 whole entry, further chain, the tested form may be a part) above

Km [1]: 10.4 ± 3.1 µM
SMILES: C[S+](CC[C@H](N)C(=O)O)C[C@H]1O[C@@H](n2cnc3c(N)ncnc32)[C@H](O)[C@@H]1O (stereo partly shown) [AdoMet]
[3H]methyl transfer (automethylation and H3 methylation), SDS-PAGE fluorography (MBP-Trithorax SET domain): MBP-Trithorax SET domain is enzymatically active and undergoes automethylation in the absence of histone H3
[3H]methyl transfer to Ash2L, SDS-PAGE fluorography [2]: Ash2L methylation is dependent on the catalytic activity of the MLL1 SET domain
[3H]methyl transfer to histone H3 peptide, SDS-PAGE fluorography (WRAD): despite significant histone H3 methylation by WRAD, no Ash2L methylation was observed

Reference: article PMC3887211, “Automethylation Activities within the Mixed Lineage Leukemia-1 (MLL1) Core Complex Reveal Evidence Supporting a “Two-active Site” Model for Multiple Histone H3 Lysine 4 Methylation” (The Journal of Biological Chemistry, 2013)
